In US7605272B2, “IGF-1R inhibitor” (Kyowa Hakko Kirin Co., Ltd., priority 2005, dated 2009):
Structures can show the parent of a compound that is named as a salt.

Columns and labels:
[1] = test system: NCI-H929; assay: Cytostatic activity on human multiple myeloma cell line NCI-H929 (WST-1); assay type: cell-based; conditions: Homo sapiens, NCI-H929, 72 h, 10 μmol/L, 72 hours; read-out: cytostatic rate (%) H929 (10 μmol/L)
Experimental: The cytostatic rates of a test compound on human multiple myeloma cell lines NCI-H929 and KMS-11, were determined in the following manner.
For culturing NCI-H929, Roswell Park Memorial Institute's Medium (RPMI) 1640 (Gibco, Catalog No. 11875-093) containing 15% fetal bovine serum (Gibco, Catalog No. 10099-141), 1 mmol/L sodium pyruvate (Gibco, Catalog No. 11360-070), 10 mmol/L HEPES (Gibco, Catalog No. 15630-80), 4.5 g/L glucose (Sigma, Catalog No. G8769), 0.05 mmol/L 2-mercaptethanol (Nacalai Tesque, Catalog No. 21418-42) and penicillin/streptomycin (1:1) (Gibco, Catalog No. 15140-122) was used. For culturing KMS-11 cell, RPMI 1640 medium containing 10% fetal bovine serum and penicillin/streptomycin (1:1) was used. Each 80 μL of the NCI-H929 cell having a concentration of 1×10^5 cells/mL (or the KMS-11 cell having a concentration of 7.5×10^4 cells/mL) was inoculated to wells of a TC MICROWELL 96U plate (Nalge Nunc International, Catalog No. 163320) and was cultured in a 5% carbon dioxide gas incubator at 37° C. for 24 hours. Each 20 μL of a solution of the test compound in dimethyl sulfoxide (DMSO) which was prepared to make the final concentration to 1 μmol/L or 10 μmol/L, was added to each well. Each 20 μL of DMSO was added to the control well and the blank well to a final concentration of 0.1%. After adding the test compound, the cells were incubated in a 5% carbon dioxide gas incubator at 37° C. for 72 hours except for the blank well. After adding 20 μL of WST-1 reagent {4-[3-(4-iodophenyl)-2-(4-nitrophenyl)-2H-5-tetrazolio]-1,3-benzene disulfonate sodium salt} (Roche Diagnostics K.K., Catalog No. 1644807), which was diluted to 50% by RPMI medium to each well, the cells were further incubated at 37° C. for 2 hours. Then, the absorbances at 450 nm (reference wavelength: 690 nm) were measured with a microplate spectrophotometer SPECTRA max 340PC (Molecular Devices Corporation). The relative growth (%) of a well to which the test compound had been added and cultured for 72 hours was determined while setting the absorbance of a well to which not the test compound but DMSO alone had been added and cultured for 72 hours (control) as 100% and that of a well where the drugs are added (blank) as 0%. The cytostatic rate (%) of the test compound was determined by subtracting the calculated relative growth from 100.

[2] = biological target: T1, IGF-1R (Homo sapiens, UniProt P08069); assay: IGF-1R inhibitory activity (kinase reaction, time-resolved fluoroimmunoassay); assay type: biochemical; conditions: test compound 10 μmol/L
T1 construct: purchased Upstate Co. 14-465
Experimental: The IGF-1R inhibitory activity was measured in the following manner.
As IGF-1R, active recombinant enzyme (Catalog No. 14-465) purchased from Upstate Co., was used. To 96 well plate (FIA-PLATE BLACK 96 well FALT-BOTTOM HIGH BINDING, Greiner Bio-one, Catalog No. 655077) coated with NeutroAvidin (Pierce, Catalog No. 31000), biotinylated polyglutamic acid-tyrosine peptide (Nihon Schering K.K., Catalog No. 61GT0BAA) was immobilized and then blocked with 0.25% gelatin to be used as a plate for measuring the kinase reaction. Separately was prepared a solution containing at final concentrations, IGF-1R (200 μg/L), Tris.HCl(pH 7.5)(20 mmol/L), Na3VO4(0.1 mmol/L), MgCl2(1 mmol/L), MnCl2(10 mmol/L), ATP(10 mmol/L), 2-mercaptoethanol (0.04%), BSA(Bovine Serum Albumin) (0.1%), DMSO(0.1%), test compound (10 μmol/L). The solution (each 50 μL) was added to the well of the plate for measuring the kinase reaction and then, enzyme reaction was performed for 30 minutes at 24° C. The plate was washed with TBS-T [10 mmol/L Tris Cl (pH 7.5), 150 mmol/L NaCl, 0.05% Tween 20 (Bio-Rad, Catalog No. 170-6531)] 4 times, then reacted with europium-labeled anti-phosphotyrosine antibody, further washed with TBS-T 4 times and then, measured with time-resolved fluoroimmunoassay (excitation wavelength 340 nm, measuring wavelength 615 nm). The value of a well to which the test compound had not been added was considered as 100% and that of a well where the enzyme and the test compound had not been added was considered as 0%. The relative activity (%) of the well which was added with enzyme and the test compound was measured and by subtracting the calculated value from 100, IGF-1R inhibitory activity of the test compound (%) was determined.

[3] = IGF-1R active recombinant enzyme

T1 sequence (P08069 959-1367 limits assumed): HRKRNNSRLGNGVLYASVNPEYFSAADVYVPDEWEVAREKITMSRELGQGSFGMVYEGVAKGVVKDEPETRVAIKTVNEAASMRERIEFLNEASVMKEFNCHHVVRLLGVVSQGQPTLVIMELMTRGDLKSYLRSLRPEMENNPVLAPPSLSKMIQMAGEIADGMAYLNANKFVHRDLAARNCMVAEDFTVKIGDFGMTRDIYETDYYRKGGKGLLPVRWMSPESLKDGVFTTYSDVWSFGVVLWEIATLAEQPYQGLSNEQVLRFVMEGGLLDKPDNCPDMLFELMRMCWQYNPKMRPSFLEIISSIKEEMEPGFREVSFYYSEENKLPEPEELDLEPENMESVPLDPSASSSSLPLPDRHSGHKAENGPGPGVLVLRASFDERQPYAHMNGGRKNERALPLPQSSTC

Compound	inhibition at 10 µM [2, 3]	also measured
CN(C(=O)c1ccccc1)c1ccccc1/C=C/c1n[nH]c2ccccc12 [Compound 38, (E)-N-{2-[2-(1H-indazol-3-yl)vinyl]phenyl}-N-methylbenzamide]	93%	inhibition at 10 µM [1]: 65%
O=C(Nc1ccc(C(=O)Nc2ccccc2/C=C/c2n[nH]c3ccccc23)s1)c1cccs1 [Compound 61, (E)-N-{2-[2-(1H-indazol-3-yl)vinyl]phenyl}-5-[(thiophen-2-ylcarbonyl)amino]thiophene-2-carboxamide]	94.5%	inhibition at 10 µM [1]: 124%
CC(C)C(=O)Nc1ccc(C(=O)Nc2ccccc2/C=C/c2n[nH]c3ccccc23)s1 [Compound 62, (E)-N-{2-[2-(1H-indazol-3-yl)vinyl]phenyl}-5-isobutyrylaminothiophene-2-carboxamide]	95.7%	inhibition at 10 µM [1]: 120%
COc1cc(N)c(/C=C/c2n[nH]c3ccccc23)cc1OC [Compound 92, (E)-2-[2-(1H-indazol-3-yl)vinyl]-4,5-dimethoxyphenylamine]	–	inhibition at 10 µM [1]: 70.1%; inhibition at 10 µM [2]: 66.5%
Cc1ccsc1C(=O)Nc1cc(C(=O)O)ccc1/C=C/c1n[nH]c2ccccc12 [Compound 98, (E)-4-[2-(1H-indazol-3-yl)vinyl]-3-[(3-methylthiophen-2-ylcarbonyl)amino]benzoic acid]	–	inhibition at 10 µM [1]: 66.3%; inhibition at 10 µM [2]: 98.4%
Cc1ccsc1C(=O)Nc1cc(C(=O)N2CC[C@@H](N)C2)ccc1/C=C/c1n[nH]c2ccccc12 [Compound 102, (E)-(R)—N-{5-(3-aminopyrrolidine-1-ylcarbonyl)-2-[2-(1H-indazol-3-yl)vinyl]phenyl}-3-methylthiophene-2-carboxamide]	–	inhibition at 10 µM [1]: 125%; inhibition at 10 µM [2]: 97.8%
Cc1ccsc1C(=O)Nc1ccc(N2CCOCC2)cc1/C=C/c1n[nH]c2ccccc12 [Compound 225, (E)-N-{2-[2-(1H-indazol-3-yl)vinyl]-4-(morpholin-4-yl)phenyl}-3-methylthiophene-2-carboxamide hydrochloride]	95%	–
O=C(Nc1cc(Cl)ccc1/C=C/c1n[nH]c2ccccc12)c1cccs1 [Compound 257, (E)-{5-chloro-2-[2-(1H-indazol-3-yl)vinyl]phenyl}thiophene-2-carboxamide]	–	inhibitory activity (%) at 10 μmol/L [2, 3]: 101.8%
O=C(c1ccc(/C=C/c2n[nH]c3ccccc23)c(N2C(=O)c3ccccc3C2=O)c1)N1CCOCC1 [Compound 276, (E)-N-{2-[2-(1H-indazol-3-yl)vinyl]-5-(morpholin-4-ylcarbonyl)phenyl}isoindole-1,3-dione]	99.6%	–
O=C(c1ccc(/C=C/c2n[nH]c3ccccc23)c(N2C(=O)c3ccccc3C2=O)c1)N1CCN(CCO)CC1 [Compound 286, (E)-2-[5-[4-(2-hydroxyethyl)piperazin-1-ylcarbonyl]-2-[2-(1H-indazol-3-yl)vinyl]phenyl]isoindole-1,3-dione]	96.1%	–
CN1CCN(C(=O)c2ccc(/C=C/c3n[nH]c4ccccc34)c(N3C(=O)c4ccccc4C3=O)c2)CC1 [Compound 287]	–	inhibitory activity (%) at 10 μmol/L [2, 3]: 97.1%
CN1CCN(C(=O)c2ccc(/C=C/c3n[nH]c4ccccc34)c(N3Cc4cccc(N)c4C3=O)c2)CC1 [Compound 316, (E)-7-amino-2-{2-[2-(1H-indazol-3-yl)vinyl]-5-(4-methylpiperazin-1-ylcarbonyl)phenyl}-2,3-dihydroisoindole-1-one]	103%	–
Nc1cccc2c1CN(c1cc(C(=O)N3CCOCC3)ccc1/C=C/c1n[nH]c3ccccc13)C2=O [Compound 324, (E)-4-amino-2-{2-[2-(1H-indazol-3-yl)vinyl]-5-(morpholin-4-ylcarbonyl)phenyl}-2,3-dihydroisoindole-1-one]	102%	–
Nc1cccc2c1CN(c1cc(CN3CCN(CCO)CC3)ccc1/C=C/c1n[nH]c3ccccc13)C2=O [Compound 345, (E)-4-amino-2-{5-[4-(2-hydroxyethyl)piperazin-1-ylmethyl]-2-[2-(1H-indazol-3-yl)vinyl]phenyl}-2,3-dihydroisoindole-1-one]	105%	–
Cc1c(C(=O)Nc2ccccc2/C=C/c2n[nH]c3ccccc23)sc2ccccc12 [Compound 351, (E)-{2-[2-(1H-indazol-3-yl)vinyl]phenyl}-3-methylbenzo[b]thiophene-2-carboxamide]	–	inhibitory activity (%) at 10 μmol/L [2, 3]: 99.1%
CS(=O)(=O)c1ccc(C(=O)Nc2ccccc2/C=C/c2n[nH]c3ccccc23)s1 [Compound 354, (E)-N-{2-[2-(1H-indazol-3-yl)vinyl]phenyl}-5-(methylsulfonyl)thiophene-2-carboxamide]	97.1%	–

Now from value to molecule, other results behind:

inhibition at 10 µM [2, 3]	Compound	also measured
95.8%	Cc1ccsc1C(=O)Nc1cc(C(=O)N2CC[C@@H](N)C2)ccc1/C=C/c1n[nH]c2ccccc12 [Compound 221, (E)-(R)—N-{2-[2-(1H-indazol-3-yl)vinyl]-5-(3-aminopyrrolidin-1-ylcarbonyl)phenyl}-3-methylthiophene-2-carboxamide hydrochloride]	–
97.8%	Cn1cccc1C(=O)Nc1ccc(N2CCOCC2)cc1/C=C/c1n[nH]c2ccccc12 [Compound 226, (E)-N-{2-[2-(1H-indazol-3-yl)vinyl]-4-(morpholin-4-yl)phenyl}-1-methyl-1H-pyrrole-2-carboxamide hydrochloride]	–
98.9%	O=C1c2ccccc2C(=O)N1c1ccc(F)cc1/C=C/c1n[nH]c2ccccc12 [Compound 250, (E)-2-{4-fluoro-2-[2-(1H-indazol-3-yl)vinyl]phenyl}isoindole-1,3-dione]	–
100%	O=C1c2ccccc2C(=O)N1c1cc(Cl)ccc1/C=C/c1n[nH]c2ccccc12 [Compound 258, (E)-2-{5-chloro-2-[2-(1H-indazol-3-yl)vinyl]phenyl}isoindole-1,3-dione]	–
99%	CN(C)C(=O)c1ccc(/C=C/c2n[nH]c3ccccc23)c(N2C(=O)c3ccccc3C2=O)c1 [Compound 285, (E)-3-(1,3-dioxo-1,3-dihydroisoindol-2-yl)-4-[2-(1H-indazol-3-yl)vinyl]-N,N-dimethylbenzamide]	–
97.7%	O=C(Nc1cc(C(=O)N2CCN(CCCO)CC2)ccc1/C=C/c1n[nH]c2ccccc12)c1ccco1 [Compound 291, (E)-N-{5-[4-(3-hydroxypropyl)piperazin-1-ylcarbonyl]-2-[2-(1H-indazol-3-yl)vinyl]phenyl}furan-2-carboxamide]	–
92.9%	O=C1c2ccccc2C(=O)N1c1cc(N2CCN(CCO)CC2)ccc1/C=C/c1n[nH]c2ccccc12 [Compound 299, (E)-2-{5-[4-(2-hydroxyethyl)piperazin-1-yl]-2-[2-(1H-indazol-3-yl)vinyl]phenyl}isoindole-1,3-dione]	–
102%	Nc1cccc2c1CN(c1cc(CN3CCN(CCCO)CC3)ccc1/C=C/c1n[nH]c3ccccc13)C2=O [Compound 314, (E)-4-amino-2-{5-[4-(3-hydroxypropyl)piperazin-1-ylmethyl]-2-[2-(1H-indazol-3-yl)vinyl]phenyl}-2,3-dihydroisoindole-1-one]	–
